We go through 27 molecules from patent US20090325964A1, “Piperazine Metabotropic Glutamate Receptor 5 (MGLUR5) Negative Allosteric Modulators For Anxiety/Depression” (Wyeth, priority 2008, published 2009).

A word on the IC50: it is the point on the concentration scale where inhibition reaches its midpoint. One may read the Ki as the dissociation constant of the complex between target and ligand, obtained from inhibition or displacement.

SMILES strings stand for the structures.

In one test the target is T1, rat mGluR5 receptor (Rattus norvegicus, UniProt P31424).
T1 construct: expressed in transfected cells; host or cells: HEK-293
T1 sequence (P31424 21-1203): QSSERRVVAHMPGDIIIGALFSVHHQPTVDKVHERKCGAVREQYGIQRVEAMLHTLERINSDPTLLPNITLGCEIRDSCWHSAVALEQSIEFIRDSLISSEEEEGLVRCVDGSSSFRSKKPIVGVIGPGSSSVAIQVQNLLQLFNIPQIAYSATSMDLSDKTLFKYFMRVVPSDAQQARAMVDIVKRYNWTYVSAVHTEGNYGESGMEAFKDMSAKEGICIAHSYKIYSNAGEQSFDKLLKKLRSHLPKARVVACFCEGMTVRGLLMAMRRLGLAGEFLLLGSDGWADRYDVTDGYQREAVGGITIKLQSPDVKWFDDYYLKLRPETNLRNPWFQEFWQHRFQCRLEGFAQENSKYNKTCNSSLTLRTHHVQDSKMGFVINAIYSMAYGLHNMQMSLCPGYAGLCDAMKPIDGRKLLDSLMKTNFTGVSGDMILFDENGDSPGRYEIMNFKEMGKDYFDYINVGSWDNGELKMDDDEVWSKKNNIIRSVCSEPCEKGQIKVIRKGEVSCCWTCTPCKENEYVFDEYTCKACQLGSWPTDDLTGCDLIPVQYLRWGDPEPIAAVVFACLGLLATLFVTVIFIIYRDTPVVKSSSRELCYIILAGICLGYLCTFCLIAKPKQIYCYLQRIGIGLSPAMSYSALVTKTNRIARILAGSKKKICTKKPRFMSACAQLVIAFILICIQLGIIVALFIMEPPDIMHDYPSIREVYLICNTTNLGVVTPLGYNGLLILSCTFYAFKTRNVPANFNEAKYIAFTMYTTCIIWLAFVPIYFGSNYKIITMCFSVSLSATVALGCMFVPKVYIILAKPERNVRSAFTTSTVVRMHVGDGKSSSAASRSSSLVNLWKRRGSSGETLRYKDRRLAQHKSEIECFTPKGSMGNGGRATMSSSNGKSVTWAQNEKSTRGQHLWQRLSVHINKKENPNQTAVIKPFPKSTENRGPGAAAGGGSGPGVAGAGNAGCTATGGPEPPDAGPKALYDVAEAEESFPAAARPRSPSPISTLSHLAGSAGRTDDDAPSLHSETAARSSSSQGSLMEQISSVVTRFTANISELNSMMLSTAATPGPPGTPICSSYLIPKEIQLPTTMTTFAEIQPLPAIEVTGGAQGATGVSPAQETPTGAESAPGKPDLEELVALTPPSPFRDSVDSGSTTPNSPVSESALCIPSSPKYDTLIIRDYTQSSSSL
Put plainly: [3H]-MPEP displacement binding assay, HEK-293 cell membranes expressing rat mGluR5. The note with it: [3H]-MPEP displacement, rat mGluR5; no Ki given; read-out: IC50 (printed in the Median Ki column instead of a Ki). The method in brief: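 Membranes from HEK-293 cells expressing rat mGluR5 (12-25 μg protein), incubated 60 min at room temperature with 4 nM [3H]-MPEP in 50 mM Tris pH 7.5, then filtered. Nonspecific binding defined with 10 μM MPEP.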
Regarding `COc1ccc(C(=O)N2CCN(c3cc4ccccc4s3)CC2)cc1C#Cc1ccccn1` [Compound 290, 1-(1-benzothiophen-2-yl)-4-[4-methoxy-3-(pyridin-2-ylethynyl)benzoyl]piperazine], the IC50 was > 10000 nM.
With `COc1ccc(C(=O)N2CCN(c3ncccc3Cl)CC2)cc1C#Cc1ccccc1[N+](=O)[O-]` [Compound 342, 1-(3-chloropyridin-2-yl)-4-{4-methoxy-3-[(2-nitrophenyl)ethynyl]benzoyl}piperazine], the half-maximal inhibitory concentration (IC50) was > 10000 nM.
With `COc1ccc(C(=O)N2CCN(c3ncccc3Cl)CC2)cc1C#Cc1cccc(OCc2ccccc2)c1` [Compound 343, 1-(3-{[3-(benzyloxy)phenyl]ethynyl}-4-methoxybenzoyl)-4-(3-chloropyridin-2-yl)piperazine], the IC50 is > 10000 nM.
In the case of `COc1ccc(C(=O)N2CCN(c3ncccc3Cl)CC2)cc1C#Cc1cccc(OC(F)(F)F)c1` [Compound 344, 1-(3-chloropyridin-2-yl)-4-(4-methoxy-3-{[3-(trifluoromethoxy)phenyl]ethynyl}benzoyl)piperazine], the concentration for half-maximal inhibition (IC50) was > 10000 nM.
Same read-out and setting: for `COc1ccc(C(=O)N2CCN(c3ncccc3Cl)CC2)cc1C#Cc1ccc(OCc2ccccc2)cc1` [Compound 346, 1-(3-{[4-(benzyloxy)phenyl]ethynyl}-4-methoxybenzoyl)-4-(3-chloropyridin-2-yl)piperazine] the value was > 10000 nM.

Staying with this test, now noted: [3H]-MPEP displacement, rat mGluR5; read-out: Median Ki.
Turning to `COc1ccc(C(=O)N2CCN(S(=O)(=O)c3ccc(-n4cnnn4)cc3)CC2)cc1C#Cc1ccccn1` [Compound 284, 1-[4-methoxy-3-(pyridin-2-ylethynyl)benzoyl]-4-{[4-(1H-tetrazol-1-yl)phenyl]sulfonyl}piperazine], the Ki came to 376 nM.
With `COc1ccc(C(=O)N2CCN(Cc3ccc(Cl)c(Cl)c3)CC2)cc1C#Cc1ccccn1` [Compound 288, 1-(3,4-dichlorobenzyl)-4-[4-methoxy-3-(pyridin-2-ylethynyl)benzoyl]piperazine], the Ki amounted to 170 nM.
With `COc1ccc(C(=O)N2CCN(Cc3c(F)cccc3Cl)CC2)cc1C#Cc1ccccn1` [Compound 289, 1-(2-chloro-6-fluorobenzyl)-4-[4-methoxy-3-(pyridin-2-ylethynyl)benzoyl]piperazine], the inhibition constant Ki was found to be 269 nM.
The same measure, in the same setting: next, `COc1ccc(C(=O)N2CCN(c3nnc(-c4ccccc4)[nH]3)CC2)cc1C#Cc1ccccn1` [Compound 291, 1-[4-methoxy-3-(pyridin-2-ylethynyl)benzoyl]-4-(5-phenyl-4H-1,2,4-triazol-3-yl)piperazine]: 199 nM; `COc1ccc(C(=O)N2CCN(c3cc(Cl)nc(SC)n3)CC2)cc1C#Cc1ccccn1` [Compound 294, 4-chloro-6-{4-[4-methoxy-3-(pyridin-2-ylethynyl)benzoyl]piperazin-1-yl}-2-(methylthio)pyrimidine]: 99 nM.
As for `COc1ccc(C(=O)N2CCN(c3nc(Cl)ncc3F)CC2)cc1C#Cc1ccccn1` [Compound 295, 2-chloro-5-fluoro-4-{4-[4-methoxy-3-(pyridin-2-ylethynyl)benzoyl]piperazin-1-yl}pyrimidine], the inhibitory constant (Ki) was 102 nM.
As for `COc1ccc(C(=O)N2CCN(c3cc(Cl)nc(C)n3)CC2)cc1C#Cc1ccccn1` [Compound 297, 4-chloro-6-{4-[4-methoxy-3-(pyridin-2-ylethynyl)benzoyl]piperazin-1-yl}-2-methylpyrimidine], the Ki came out at 159 nM.
For `COc1nc(OC)nc(N2CCN(C(=O)c3ccc(OC)c(C#Cc4ccccn4)c3)CC2)n1` [Compound 305, 2,4-dimethoxy-6-{4-[4-methoxy-3-(pyridin-2-ylethynyl)benzoyl]piperazin-1-yl}-1,3,5-triazine], the Ki came out at 229 nM.
The same measure, in the same setting: next, `Cc1ccc(C(=O)N2CCN(c3ncc(Cl)cc3Cl)CC2)cc1C#Cc1ccccn1` [Compound 310, 1-(3,5-dichloropyridin-2-yl)-4-[4-methyl-3-(pyridin-2-ylethynyl)benzoyl]piperazine]: 745 nM.
Consider `Cc1ccc(C(=O)N2CCN(c3ncccc3Cl)CC2)cc1C#Cc1ccccn1` [Compound 311, 1-(3-chloropyridin-2-yl)-4-[4-methyl-3-(pyridin-2-ylethynyl)benzoyl]piperazine], for which the Ki was determined as 140 nM.
Take `O=C(c1ccc(F)c(C#Cc2ccccn2)c1)N1CCN(c2ncccn2)CC1` [Compound 312, 2-{4-[4-Fluoro-3-(pyridin-2-ylethynyl)benzoyl]piperazin-1-yl}pyrimidine]: the inhibition constant Ki turned out to be 84 nM.
On to `O=C(c1ccc(F)c(C#Cc2ccccn2)c1)N1CCN(c2ncc(Cl)cc2Cl)CC1` [Compound 314, 1-(3,5-dichloropyridin-2-yl)-4-[4-fluoro-3-(pyridin-2-ylethynyl)benzoyl]piperazine], for which the Ki is 1840 nM.
Regarding `O=C(c1ccc(F)c(C#Cc2ccccn2)c1)N1CCN(c2ncccc2Cl)CC1` [Compound 315, 1-(3-chloropyridin-2-yl)-4-[4-fluoro-3-(pyridin-2-ylethynyl)benzoyl]piperazine], the Ki came out at 270 nM.
On to `CCOc1ccc(C(=O)N2CCN(c3ncc(Cl)cc3Cl)CC2)cc1C#Cc1ccccn1` [Compound 319, 1-(3,5-dichloropyridin-2-yl)-4-[4-ethoxy-3-(pyridin-2-ylethynyl)benzoyl]piperazine], for which the inhibition constant (Ki) is 652 nM.
As for `CCOc1ccc(C(=O)N2CCN(c3ncccc3Cl)CC2)cc1C#Cc1ccccn1` [Compound 321, 1-(3-chloropyridin-2-yl)-4-[4-ethoxy-3-(pyridin-2-ylethynyl)benzoyl]piperazine], the Ki was determined as 149 nM.
For the molecule `O=C(c1ccc(OCC2CC2)c(C#Cc2ccccn2)c1)N1CCN(c2ccccn2)CC1` [Compound 323, 1-{[4-(cyclopropylmethoxy)-3-(pyridin-2-ylethynyl)phenyl]carbonyl}-4-pyridin-2-ylpiperazine], the Ki amounted to 198 nM.
As for `O=C(c1ccc(OCC2CC2)c(C#Cc2ccccn2)c1)N1CCN(c2ncccn2)CC1` [Compound 325, 2-(4-{[4-(cyclopropylmethoxy)-3-(pyridin-2-ylethynyl)phenyl]carbonyl}piperazin-1-yl)pyrimidine], the Ki stood at 1340 nM.
For `COc1ccc(C(=O)N2CCN(c3ccccn3)C(=O)C2)cc1C#Cc1ccccn1` [Compound 330, 4-{[4-methoxy-3-(pyridin-2-ylethynyl)phenyl]carbonyl}-1-pyridin-2-ylpiperazin-2-one], the Ki turned out to be 122 nM.
Consider `O=C(c1ccc(OC(F)(F)F)c(C#Cc2ccccn2)c1)N1CCN(c2ncccc2Cl)CC1` [Compound 336, 1-(3-chloropyridin-2-yl)-4-[3-(pyridin-2-ylethynyl)-4-(trifluoromethoxy)benzoyl]piperazine], for which the inhibitory constant (Ki) came to 1070 nM.
As for `O=C(c1ccc(OC(F)(F)F)c(C#Cc2ccccn2)c1)N1CCN(c2cccc(C(F)(F)F)c2)CC1` [Compound 337, 1-[3-(pyridin-2-ylethynyl)-4-(trifluoromethoxy)benzoyl]-4-[3-(trifluoromethyl)phenyl]piperazine], the inhibition constant Ki was found to be 1570 nM.
As for `COc1nc(N2CCN(C(=O)c3ccc(OC(F)(F)F)c(C#Cc4ccccn4)c3)CC2)ncc1Br` [Compound 339, 5-bromo-4-methoxy-2-{4-[3-(pyridin-2-ylethynyl)-4-(trifluoromethoxy)benzoyl]piperazin-1-yl}pyrimidine], the Ki is 702 nM.
On the same count and under the same terms, next, `COc1ccc(C(=O)N2CCN(c3ncccc3Cl)CC2)cc1C#Cc1ccccc1` [Compound 341, 1-(3-chloropyridin-2-yl)-4-[4-methoxy-3-(phenylethynyl)benzoyl]piperazine]: 1130 nM.
